EP0318620A1, “Herbicidal sulfonamides” (E.I. DU PONT DE NEMOURS AND COMPANY, priority 1987, dated 1989)

Tests used:
[1] = system: sicklepod; test: Test B pan test in Sassafras sandy loam soil, pre- and postemergence; assay type: in vivo, Cassia obtusifolia; conditions: scale 0 to 100
From the text: (§1) Three round pans (25 cm diameter by 12.5 cm deep) were filled with Sassafras sandy loam soil. One pan was planted with nutsedge (Cyperus rotundus) tubers, crabgrass (Digitaria sanguinalis), sicklepod (Cassia obtusifolia), jimsonweed (Datura stramonium), velvetleaf (Abutilon theophrasti), lambsquarters (Chenopodim album), rice (Oryza sativa) and teaweed (Sida spinosa). The second pot was planted with green foxtail (Setaria viridis), cocklebur (Xantium pensyivanicum), morningglory (lpomoea hederacea), cotton (Gossypium hirsutum), johnsongrass (Sorghum halepense), barnyardgrass (Echinochloa crusgalli), corn (Zea mays), soybean (Glycine max) and giant foxtail (Setaria faberi). The third pot was planted with wheat (Triticum aestivum), barley (Hordeum vulgare), wild buckwheat (Polgonum convolvulus L.), cheatgrass (Bromus secalinus L.), sugarbeet (Beta vulgaris), wild oats (Avena fatua), viola (Viola arvensis), blackgrass (Alopecurus myosuroides), and rape (Brassica napus). The plants were grown for approximately fourteen days, then sprayed postemergence with the chemicals dissolved in a non-phytotoxic solvent.
(§2) Three round pans (25 cm diameter by 12.5 cm deep) were filled with Sassafras sandy loam soil. One pan was planted with nutsedge tubers, crabgrass, sicklepod, jimsonweed, velvetleaf, lambsquarters, rice and teaweed. The second pot was planted with green foxtail, cocklebur, morningglory, cottom, johnsongrass, . barnyardgrass, corn, soybean and giant foxtail. The third pot was planted with wheat, barley, wild buckwheat, cheatgrass, sugarbeet, wild oat, viola, blackgrass and rape. The three pans were sprayed preemer gence with the chemicals dissolved in a non-phytotoxic solvent.
(§3) Treated plants and controls were maintained in the greenhouse for 24 days, then all rated plants were compared to controls and visually rated for plant response.
(§4) A dash (-) response means no test.

[2] = system: crabgrass; test: as above; assay type: in vivo, Digitaria sanguinalis; conditions: scale 0 to 100
From the text: as §1, §2, §3, §4

[3] = system: jimsonweed; test: as above; assay type: in vivo, Datura stramonium; conditions: scale 0 to 100
From the text: as §1, §2, §3, §4

[4] = system: morningglory; test: Test A greenhouse herbicide test, pre- and postemergence; assay type: in vivo, Ipomoea spp.; conditions: rated after sixteen days
From the text: (§5) Seeds of crabgrass (Digitaria spp.), barnyardgrass (Echinochloa crusgalli), cheatgrass (Bromus Secalinus), giant foxtail (Setaria faberii), wild oats (Avena fatua), velvetleaf (Abutilon theophrasti), morningglory (Ipomoea spp. , cocklebur (Xanthium pensylvanicum). sorghum, corn, barley, soybean, sugarbeet, cotton, rice, wheat and purple nutsedge (Cyperus rotundus) tubers were planted and treated preemergence with the test chemicals dissolved in a non-phytotoxic solvent. At the same time, these crop and weed species were treated with a soil/foliage application. At the time of treatment, the plants ranged in height from 2 to 18 cm. Treated plants and controls were maintained in a greenhouse for sixteen days, after which all species were compared to controls and visually rated for response to treatment. The ratings, summarized in Table A, are based on a numerical scale extending from 0 = no injury, to 10 = complete kill. The accompanying descriptive symbols have the following meanings: • B = burn; • C = chlorosis/necrosis; • D = defoliation; • E = emergence inhibition; • G = growth retardation; • H = formative effect; • U = unusual pigmentation; • X = axillary stimulation; • S = albinism; and • 6Y = abscised buds or flowers.

[5] = system: crabgrass; test: as above; assay type: in vivo, Digitaria spp.; conditions: PREEMERGENCE; RATE 0.01 KG/HA; rated after sixteen days
From the text: as §5

[6] = system: velvetleaf; test: as above; assay type: in vivo, Abutilon theophrasti; conditions: rated after sixteen days
From the text: as §5

[7] = system: rice; test: as above; assay type: in vivo; conditions: rated after sixteen days
From the text: as §5

[8] = system: corn; test: as above; assay type: in vivo; conditions: rated after sixteen days
From the text: as §5

[9] = system: rice; test: Test B pan test in Sassafras sandy loam soil, pre- and postemergence; assay type: in vivo, Oryza sativa; conditions: scale 0 to 100
From the text: as §1, §2, §3, §4

[10] = system: cheatgrass; test: Test A greenhouse herbicide test, pre- and postemergence; assay type: in vivo, Bromus Secalinus; conditions: rated after sixteen days
From the text: as §5

[11] = system: teaweed; test: Test B pan test in Sassafras sandy loam soil, pre- and postemergence; assay type: in vivo, Sida spinosa; conditions: scale 0 to 100
From the text: as §1, §2, §3, §4

[12] = system: cocklebur; test: as above; assay type: in vivo, Xantium pensyivanicum; conditions: scale 0 to 100
From the text: as §1, §2, §3, §4

[13] = system: giant foxtail; test: as above; assay type: in vivo, Setaria faberi; conditions: scale 0 to 100
From the text: as §1, §2, §3, §4

[14] = system: nutsedge; test: as above; assay type: in vivo, Cyperus rotundus; conditions: scale 0 to 100
From the text: as §1, §2, §3, §4

[15] = system: wild oats; test: as above; assay type: in vivo, Avena fatua; conditions: scale 0 to 100
From the text: as §1, §2, §3, §4

## CCOC(=O)c1c(CC#N)cccc1S(=O)(=O)NC(=O)Nc1nc(OC)cc(OC)n1 [Compound 3, 2-(cyanomethyl)-6 [[(4,6-dimethoxypyrimidin-2-yl)-aminocarbonyl]aminosulfonyl]benzoic acid, ethyl ester]
[1]; POSTEMERGENCE, RATE 0001 G/HA
  CASSIA response rating: 30
[1]; POSTEMERGENCE, RATE 0004 G/HA
  CASSIA response rating: 50
[1]; POSTEMERGENCE, RATE 0016 G/HA
  CASSIA response rating: 70
[1]; POSTEMERGENCE, RATE 0062 G/HA
  CASSIA response rating: 90
[1]; PREEMERGENCE, RATE 0004 G/HA
  CASSIA response rating: 0
[1]; PREEMERGENCE, RATE 0016 G/HA
  CASSIA response rating: 0
[1]; PREEMERGENCE, RATE 0062 G/HA
  CASSIA response rating: 0
[2]; POSTEMERGENCE, RATE 0001 G/HA
  CRABGRASS response rating: 0
[2]; POSTEMERGENCE, RATE 0004 G/HA
  CRABGRASS response rating: 30
[2]; POSTEMERGENCE, RATE 0016 G/HA
  CRABGRASS response rating: 50
[2]; POSTEMERGENCE, RATE 0062 G/HA
  CRABGRASS response rating: 70
[2]; PREEMERGENCE, RATE 0004 G/HA
  CRABGRASS response rating: 0
[2]; PREEMERGENCE, RATE 0016 G/HA
  CRABGRASS response rating: 30
[2]; PREEMERGENCE, RATE 0062 G/HA
  CRABGRASS response rating: 70
[3]; POSTEMERGENCE, RATE 0001 G/HA
  JIMSONWEED response rating: 30
[3]; POSTEMERGENCE, RATE 0004 G/HA
  JIMSONWEED response rating: 60
[3]; POSTEMERGENCE, RATE 0016 G/HA
  JIMSONWEED response rating: 100
[3]; POSTEMERGENCE, RATE 0062 G/HA
  JIMSONWEED response rating: 100
[3]; PREEMERGENCE, RATE 0004 G/HA
  JIMSONWEED response rating: 0
[3]; PREEMERGENCE, RATE 0016 G/HA
  JIMSONWEED response rating: 0
[3]; PREEMERGENCE, RATE 0062 G/HA
  JIMSONWEED response rating: 30
[4]; POSTEMERGENCE, RATE 0.01 KG/HA
  MORNING GLORY visual rating of response to treatment: 10C
[4]; POSTEMERGENCE, RATE 0.05 KG/HA
  MORNING GLORY visual rating of response to treatment: 10C
[4]; PREEMERGENCE, RATE 0.01 KG/HA
  MORNING GLORY visual rating of response to treatment: 2G
[4]; PREEMERGENCE, RATE 0.05 KG/HA
  MORNING GLORY visual rating of response to treatment: 9G
[5]
  CRABGRASS visual rating of response to treatment: 4G
[6]; POSTEMERGENCE, RATE 0.01 KG/HA
  VELVETLEAF visual rating of response to treatment: 10C
[6]; POSTEMERGENCE, RATE 0.05 KG/HA
  VELVETLEAF visual rating of response to treatment: 10C
[6]; PREEMERGENCE, RATE 0.01 KG/HA
  VELVETLEAF visual rating of response to treatment: 2H
[6]; PREEMERGENCE, RATE 0.05 KG/HA
  VELVETLEAF visual rating of response to treatment: 5H
[7]; POSTEMERGENCE, RATE 0.01 KG/HA
  RICE visual rating of response to treatment: 9C
[7]; POSTEMERGENCE, RATE 0.05 KG/HA
  RICE visual rating of response to treatment: 9C
[7]; PREEMERGENCE, RATE 0.01 KG/HA
  RICE visual rating of response to treatment: 3G
[8]; POSTEMERGENCE, RATE 0.01 KG/HA
  CORN visual rating of response to treatment: 10C
[8]; PREEMERGENCE, RATE 0.05 KG/HA
  CORN visual rating of response to treatment: 9H
[9]; POSTEMERGENCE, RATE 0001 G/HA
  RICE response rating: 60
[9]; POSTEMERGENCE, RATE 0004 G/HA
  RICE response rating: 90
[9]; POSTEMERGENCE, RATE 0016 G/HA
  RICE response rating: 100
[9]; POSTEMERGENCE, RATE 0062 G/HA
  RICE response rating: 100
[9]; PREEMERGENCE, RATE 0004 G/HA
  RICE response rating: 0
[9]; PREEMERGENCE, RATE 0016 G/HA
  RICE response rating: 30
[9]; PREEMERGENCE, RATE 0062 G/HA
  RICE response rating: 80
[10]; POSTEMERGENCE, RATE 0.01 KG/HA
  CHEATGRASS visual rating of response to treatment: 6G
[10]; PREEMERGENCE, RATE 0.01 KG/HA
  CHEATGRASS visual rating of response to treatment: 5G
[10]; PREEMERGENCE, RATE 0.05 KG/HA
  CHEATGRASS visual rating of response to treatment: 8H
[11]; POSTEMERGENCE, RATE 0001 G/HA
  TEAWEED response rating: 30
[11]; POSTEMERGENCE, RATE 0004 G/HA
  TEAWEED response rating: 50
[11]; POSTEMERGENCE, RATE 0016 G/HA
  TEAWEED response rating: 70
[11]; POSTEMERGENCE, RATE 0062 G/HA
  TEAWEED response rating: 100
[11]; PREEMERGENCE, RATE 0004 G/HA
  TEAWEED response rating: 0
[11]; PREEMERGENCE, RATE 0016 G/HA
  TEAWEED response rating: 0
[11]; PREEMERGENCE, RATE 0062 G/HA
  TEAWEED response rating: 0
[12]; POSTEMERGENCE, RATE 0001 G/HA
  COCKLEBUR response rating: 70
[12]; POSTEMERGENCE, RATE 0004 G/HA
  COCKLEBUR response rating: 80
[12]; POSTEMERGENCE, RATE 0016 G/HA
  COCKLEBUR response rating: 90
[12]; POSTEMERGENCE, RATE 0062 G/HA
  COCKLEBUR response rating: 100
[12]; PREEMERGENCE, RATE 0004 G/HA
  COCKLEBUR response rating: 30
[12]; PREEMERGENCE, RATE 0016 G/HA
  COCKLEBUR response rating: 60
[12]; PREEMERGENCE, RATE 0062 G/HA
  COCKLEBUR response rating: 90
[13]; POSTEMERGENCE, RATE 0001 G/HA
  GIANT FOXTAIL response rating: 90
[13]; POSTEMERGENCE, RATE 0004 G/HA
  GIANT FOXTAIL response rating: 100
[13]; POSTEMERGENCE, RATE 0016 G/HA
  GIANT FOXTAIL response rating: 100
[13]; POSTEMERGENCE, RATE 0062 G/HA
  GIANT FOXTAIL response rating: 100
[13]; PREEMERGENCE, RATE 0004 G/HA
  GIANT FOXTAIL response rating: 30
[13]; PREEMERGENCE, RATE 0016 G/HA
  GIANT FOXTAIL response rating: 60
[13]; PREEMERGENCE, RATE 0062 G/HA
  GIANT FOXTAIL response rating: 100
[14]; POSTEMERGENCE, RATE 0001 G/HA
  NUTSEDGE response rating: 100
[14]; POSTEMERGENCE, RATE 0004 G/HA
  NUTSEDGE response rating: 100
[14]; POSTEMERGENCE, RATE 0016 G/HA
  NUTSEDGE response rating: 100
[14]; POSTEMERGENCE, RATE 0062 G/HA
  NUTSEDGE response rating: 100
[14]; PREEMERGENCE, RATE 0004 G/HA
  NUTSEDGE response rating: 0
[14]; PREEMERGENCE, RATE 0016 G/HA
  NUTSEDGE response rating: 30
[14]; PREEMERGENCE, RATE 0062 G/HA
  NUTSEDGE response rating: 70
[15]; POSTEMERGENCE, RATE 0001 G/HA
  WILD OATS response rating: 0
[15]; POSTEMERGENCE, RATE 0004 G/HA
  WILD OATS response rating: 30
[15]; POSTEMERGENCE, RATE 0016 G/HA
  WILD OATS response rating: 50
[15]; POSTEMERGENCE, RATE 0062 G/HA
  WILD OATS response rating: 80
[15]; PREEMERGENCE, RATE 0004 G/HA
  WILD OATS response rating: 20
[15]; PREEMERGENCE, RATE 0016 G/HA
  WILD OATS response rating: 40
[15]; PREEMERGENCE, RATE 0062 G/HA
  WILD OATS response rating: 60
